According to patent US20050171038A1, “Therapeutic combinations” (Agouron Pharmaceuticals, Inc., priority 2004, published 2005):

What was measured:
HIV-1 RF = assay: XTT dye reduction combination assay: protection of CEM-SS cells against HIV-1 RF infection, MacSynergy II analysis; assay type: cell-based; conditions: 95% confidence interval
CEM-SS cells = assay: Cytotoxicity of the combinations in the XTT dye reduction assay (mock infected CEM-SS cells)
Procedure: CEM-SS cells were added at 2×10^4 cells per well into 96-well plates containing 1.5-fold or 2.0-fold dilutions of test compounds, and were subsequently infected with HIV-1 RF at a multiplicity of infection of 0.470 or mock infected with medium only. Six days after infection, 50 μl of XTT (1 mg/ml XTT tetrazolium, […] phenazine methosulfate) were added to the wells and the plate was reincubated for four hours. Viability, as determined by the amount of XTT formazan produced, was quantified spectrophotometrically by absorbance at 450 nm. Optical density values were exported to a MacSynergy™ II (3, University of Michigan, Ann Arbor, Mich.) spreadsheet for subsequent analysis.

[1] = in combination with 4,4-difluoro-1-{(2S,3S)-2-hydroxy-3-[(3-hydroxy-2-methylbenzoyl)amino]-4-phenylbutanoyl}-3,3-dimethyl-N-(2,2,2-trifluoroethyl)-L-prolinamide, six days after infection of CEM-SS cells with HIV-1 RF, triplicate plates
[2] = in combination with 4,4-difluoro-1-{(2S,3S)-2-hydroxy-3-[(3-hydroxy-2-methylbenzoyl)amino]-4-phenylbutanoyl}-3,3-dimethyl-N-(2,2,2-trifluoroethyl)-L-prolinamide
[3] = in combination with (4R)-N-allyl-3-{(2S,3S)-2-hydroxy-3-[(3-hydroxy-2-methylbenzoyl)amino]-4-phenylbutanoyl}-5,5-dimethyl-1,3-thiazolidine-4-carboxamide, mean of two or three independent experiments
[4] = in combination with N-ethyl-4,4-difluoro-1-{(2S,3S)-2-hydroxy-3-[(3-hydroxy-2,5-dimethylbenzoyl)amino]-4-phenylbutanoyl}-3,3-dimethyl-L-prolinamide, six days after infection of CEM-SS cells with HIV-1 RF, triplicate plates
[5] = in combination with N-ethyl-4,4-difluoro-1-{(2S,3S)-2-hydroxy-3-[(3-hydroxy-2,5-dimethylbenzoyl)amino]-4-phenylbutanoyl}-3,3-dimethyl-L-prolinamide

`Cc1cccc(C)c1OCC(=O)N[C@@H](Cc1ccccc1)[C@@H](O)C[C@H](Cc1ccccc1)NC(=O)[C@H](C(C)C)N1CCCNC1=O` (relative stereo) [Lopinavir, [1S-[1R*,(R*),3R*,4R*]]—N-[4-[[(2,6-dimethyl-phenoxy)acetyl]amino]-3-hydroxy-5-phenyl-1-(phenylmethyl)pentyl]tetrahydro-alpha-(1-methylethyl)-2-oxo-1(2H)-pyrimidineacetamide] was tested, and the “Antagonism (volume)” value (HIV-1 RF; [1]) was 0 μM^2%, the “Synergy (volume)” value (HIV-1 RF; [1]) was 261 μM^2% and the Cytotoxicity (CEM-SS cells; [2]) was “none”.
With `Cc1cn([C@H]2C[C@H](N=[N+]=[N-])[C@@H](CO)O2)c(=O)[nH]c1=O` [Zidovudine, 3′-azido-3′-deoxythymidine] the “Antagonism (volume)” value (HIV-1 RF; [1]) was 0 μM^2%, the “Synergy (volume)” value (HIV-1 RF; [1]) was 107 μM^2% and the “Antagonism (volume)” value (HIV-1 RF; [3]) was −0.88 μM^2%. The “Synergy (volume)” value (HIV-1 RF; [3]) was 180 μM^2%.
With `Cc1ccnc2c1NC(=O)c1cccnc1N2C1CC1` [Nevirapine, 11-cyclopropyl-5,11-dihydro-4-methyl-6H-dipyrido[3,2-b:2′,3′-e][1,4]diazepin-6-one] the “Antagonism (volume)” value (HIV-1 RF; [1]) was 0 μM^2%, the “Synergy (volume)” value (HIV-1 RF; [1]) was 270 μM^2% and the “Antagonism (volume)” value (HIV-1 RF; [3]) was 0 μM^2%. For the same compound, the “Synergy (volume)” value (HIV-1 RF; [3]) was 203 μM^2%, the “Antagonism (volume)” value (HIV-1 RF; [4]) was −2.4 μM^2% and the “Synergy (volume)” value (HIV-1 RF; [4]) was 153 μM^2%. The Cytotoxicity (CEM-SS cells; [2]) was “none” and the Cytotoxicity (CEM-SS cells; [5]) was “insignificant”.
`O=C1Nc2ccc(Cl)cc2[C@@](C#CC2CC2)(C(F)(F)F)O1` [Efavirenz, (S)-6-chloro-4-(cyclopropylethynyl)-1,4-dihydro-4-(trifluoromethyl)-2H-3,1-benzoxazin-2-one] was tested, and the “Antagonism (volume)” value (HIV-1 RF; [3]) was −1.1 μM^2%, the “Synergy (volume)” value (HIV-1 RF; [3]) was 130 μM^2% and the “Antagonism (volume)” value (HIV-1 RF; [4]) was 0 μM^2%. The “Synergy (volume)” value (HIV-1 RF; [4]) was 78 μM^2% and the Cytotoxicity (CEM-SS cells; [5]) was “none”.
With `CC(C)c1nc(CN(C)C(=O)N[C@H](C(=O)N[C@@H](Cc2ccccc2)C[C@H](O)[C@H](Cc2ccccc2)NC(=O)OCc2cncs2)C(C)C)cs1` (relative stereo) [Ritonavir, 10-hydroxy-2-methyl-5-(1-methylethyl)-1-[2-(1-methylethyl)-4-thiazolyl]-3,6-dioxo-8,11-bis(phenylmethyl)-2,4,7,12-tetraazatridecan-13-oic acid, 5-thiazolylmethyl ester, [5S-(5R*,8R*,10R*,11R*)]] the “Antagonism (volume)” value (HIV-1 RF; [3]) was −0.77 μM^2% and the “Synergy (volume)” value (HIV-1 RF; [3]) was 407 μM^2%.
For `CC(C)OC(=O)OCOP(=O)(CO[C@H](C)Cn1cnc2c(N)ncnc21)OCOC(=O)OC(C)C.O=C(O)/C=C/C(=O)O` [Tenofovir, 9-[(R)-2-[[bis[[(isopropoxycarbonyl)oxy]methoxy]phosphinyl]methoxy]propyl]adenine fumarate (1:1)], the “Antagonism (volume)” value (HIV-1 RF; [1]) was −6.0 μM^2%, the “Synergy (volume)” value (HIV-1 RF; [1]) was 106 μM^2% and the “Antagonism (volume)” value (HIV-1 RF; [3]) was 0 μM^2%. For the same compound, the “Synergy (volume)” value (HIV-1 RF; [3]) was 125 μM^2%, the “Antagonism (volume)” value (HIV-1 RF; [4]) was 0 μM^2% and the “Synergy (volume)” value (HIV-1 RF; [4]) was 14 μM^2%. For the same compound, the Cytotoxicity (CEM-SS cells; [2]) was “none” and the Cytotoxicity (CEM-SS cells; [5]) was “insignificant”.
For `Cc1c(O)cccc1C(=O)N[C@@H](CSc1ccccc1)[C@H](O)CN1C[C@H]2CCCC[C@H]2C[C@H]1C(=O)NC(C)(C)C` (relative stereo) [Nelfinavir, [3S-[2(2S*, 3S*),3-alpha,4abeta,8abeta]]-N-(1,1-dimethylethyl)decahydro-2-[2-hydroxy-3-[(3-hydroxy-2-methylbenzoyl)amino]-4-(phenylthio)butyl]-3-isoquinolinecarboxamide mono-methanesulfonate], the “Antagonism (volume)” value (HIV-1 RF; [1]) was −0.28 μM^2%, the “Synergy (volume)” value (HIV-1 RF; [1]) was 653 μM^2% and the “Antagonism (volume)” value (HIV-1 RF; [3]) was −13 μM^2%. For the same compound, the “Synergy (volume)” value (HIV-1 RF; [3]) was 197 μM^2%, the “Antagonism (volume)” value (HIV-1 RF; [4]) was 0 μM^2% and the “Synergy (volume)” value (HIV-1 RF; [4]) was 229 μM^2%. The Cytotoxicity (CEM-SS cells; [2]) was “none” and the Cytotoxicity (CEM-SS cells; [5]) was “none”.
